Values after ≈ are worked out from the molar mass of the structure shown.
Columns and labels:
Experiment in all cases: ≥ marks a high value that may be exact or a test limit, other limits are often not marked, values filed in µg/mL are converted to µM
[1] = tested on: Escherichia coli ATCC 25922
[2] = tested on: Staphylococcus aureus NCTC 8325
[3] = tested on: Escherichia coli ATCC 25726
[4] = tested on: Staphylococcus aureus ATCC 25923
[5] = tested on: Candida albicans ATCC 2002
[6] = tested on: Pseudomonas aeruginosa CMCCB 10104
[7] = tested on: Staphylococcus aureus KCTC 1621
[8] = tested on: Staphylococcus epidermidis KCTC 1917
[9] = tested on: Bacillus subtilis KCTC 3068
[10] = tested on: Salmonella typhimurium KCTC 1926
[11] = tested on: Pseudomonas aeruginosa KCTC 1637
[12] = tested on: Escherichia coli KCTC 1682
[13] = tested on: Bacillus subtilis ATCC 6633
[14] = tested on: Enterococcus faecalis ATCC 29212
[15] = tested on: Staphylococcus epidermidis C621
[16] = tested on: Pseudomonas aeruginosa ATCC 27853
Escherichia coli UB1005 = tested on: Escherichia coli UB1005
[17] = tested on: Escherichia coli ATCC 11775

MIC [1] [µM]	MIC [4] [µM]	MIC [7] [µM]	MIC [8] [µM]	MIC [9] [µM]	MIC [10] [µM]	MIC [11] [µM]	MIC [12] [µM]	Structure (SMILES)	other results
> 100								CC[C@H](C)[C@H](NC(=O)CNC(=O)[C@H](CO)NC(=O)[C@H](CC(C)C)NC(=O)[C@H](CC(C)C)NC(=O)[C@H](CCCCN)NC(=O)CNC(=O)[C@H](CC(C)C)NC(=O)[C@@H](NC(=O)[C@@H]1CCCN1C(=O)[C@H](CC(C)C)NC(=O)[C@@H](N)Cc1ccccc1)[C@@H](C)CC)C(=O)N[C@@H](CC(C)C)C(N)=O [FLPILGKLLSGIL]	MIC [2]: 15 µM (≈ 20.7 µg/mL)
	50 (≈ 68.4 µg/mL)							CC[C@H](C)[C@H](NC(=O)[C@@H]1CCCN1C(=O)[C@H](CC(C)C)NC(=O)[C@@H](N)Cc1ccccc1)C(=O)N[C@@H](CC(C)C)C(=O)NCC(=O)N[C@@H](CC(N)=O)C(=O)N[C@@H](CC(C)C)C(=O)N[C@@H](CC(C)C)C(=O)N[C@@H](CO)C(=O)NCC(=O)N[C@@H](CC(C)C)C(=O)N[C@@H](CC(C)C)C(N)=O [FLPILGNLLSGLL]	MIC [3]: ≥ 100 µM
0.924 (≈ 3.6 µg/mL)	0.924 (≈ 3.6 µg/mL)							CC[C@H](C)[C@H](NC(=O)[C@H](CC(C)C)NC(=O)[C@H](CCC(N)=O)NC(=O)[C@@H](NC(=O)[C@H](C)NC(=O)CNC(=O)[C@H](CCCCN)NC(=O)[C@@H](NC(=O)[C@H](CC(C)C)NC(=O)[C@@H](NC(=O)[C@H](Cc1ccccc1)NC(=O)[C@@H](NC(=O)CN)C(C)C)[C@@H](C)O)[C@@H](C)CC)[C@@H](C)O)C(=O)NCC(=O)N[C@@H](CCCCN)C(=O)N[C@H](C(=O)N[C@@H](CC(C)C)C(=O)NCC(=O)N[C@@H](CCCCN)C(=O)N[C@@H](CCC(=O)O)C(=O)N[C@@H](CC(C)C)C(=O)NCC(=O)N[C@@H](CCCCN)C(=O)N[C@H](C(=O)NCC(=O)N[C@@H](CC(C)C)C(=O)N[C@@H](CCC(=O)O)C(=O)N[C@@H](CC(C)C)C(=O)N[C@@H](CCSC)C(=O)N[C@@H](C)C(=O)N[C@H]1CSSC[C@@H](C(=O)O)NC(=O)[C@H](CCC(N)=O)NC(=O)[C@H](CCC(=O)O)NC(=O)[C@H]([C@@H](C)O)NC(=O)[C@H]([C@@H](C)CC)NC(=O)[C@H](CCCCN)NC1=O)[C@@H](C)O)[C@@H](C)O [GVFTLIKGATQLIGKTLGKELGKTGLELMACKITEQC]	MIC [5]: 0.924 µM (≈ 3.6 µg/mL); MIC [6]: 0.924 µM (≈ 3.6 µg/mL)
	> 100							CC[C@H](C)[C@H](NC(=O)[C@H](CCC(=O)O)NC(=O)[C@H](CO)NC(=O)[C@@H](NC(=O)[C@H](CC(C)C)NC(=O)[C@H](C)NC(=O)[C@H](CCC(N)=O)NC(=O)CNC(=O)[C@H](Cc1ccccc1)NC(=O)[C@H](CCCCN)NC(=O)[C@H](CCCCN)NC(=O)[C@H](C)NC(=O)[C@H](CO)NC(=O)[C@H](Cc1cnc[nH]1)NC(=O)[C@H](CC(C)C)NC(=O)[C@H](Cc1ccccc1)NC(=O)[C@H](CCCCN)NC(=O)CNC(=O)[C@@H](NC(=O)CN)C(C)C)C(C)C)C(=O)N[C@@H](CCSC)C(=O)N[C@@H](CCCCN)C(=O)N[C@@H](CO)C(=O)O [GVGKFLHSAKKFGQALVSEIMKS]	MIC [3]: ≥ 50 µM
		5.08 (≈ 10 µg/mL)	5.08 (≈ 10 µg/mL)	5.08 (≈ 10 µg/mL)	5.08 (≈ 10 µg/mL)	5.08 (≈ 10 µg/mL)	5.08 (≈ 10 µg/mL)	CC[C@H](C)[C@H](N)C(=O)N[C@@H](CC(C)C)C(=O)N[C@@H](CCCCN)C(=O)N[C@@H](Cc1c[nH]c2ccccc12)C(=O)N[C@@H](CCCCN)C(=O)N[C@@H](Cc1c[nH]c2ccccc12)C(=O)N[C@@H](CCCCN)C(=O)N[C@@H](Cc1c[nH]c2ccccc12)C(=O)N[C@@H](Cc1c[nH]c2ccccc12)C(=O)N1CCC[C@H]1C(=O)N[C@@H](Cc1c[nH]c2ccccc12)C(=O)N[C@@H](CCCN=C(N)N)C(=O)N[C@@H](CCCN=C(N)N)C(N)=O [ILKWKWKWWPWRR]	
		2.54 (≈ 5 µg/mL)	5.08 (≈ 10 µg/mL)	2.54 (≈ 5 µg/mL)	5.08 (≈ 10 µg/mL)	5.08 (≈ 10 µg/mL)	5.08 (≈ 10 µg/mL)	CC[C@H](C)[C@H](N)C(=O)N[C@@H](CC(C)C)C(=O)N[C@@H](CCCCN)C(=O)N[C@@H](Cc1c[nH]c2ccccc12)C(=O)N[C@@H](CCCCN)C(=O)N[C@@H](Cc1c[nH]c2ccccc12)C(=O)N1CCC[C@H]1C(=O)N[C@@H](Cc1c[nH]c2ccccc12)C(=O)N[C@@H](Cc1c[nH]c2ccccc12)C(=O)N[C@@H](CCCCN)C(=O)N[C@@H](Cc1c[nH]c2ccccc12)C(=O)N[C@@H](CCCN=C(N)N)C(=O)N[C@@H](CCCN=C(N)N)C(N)=O [ILKWKWPWWKWRR]	
3.35 (≈ 8.59 µg/mL)	3.35 (≈ 8.59 µg/mL)							CC[C@H](C)[C@H](N)C(=O)N[C@@H](CC(N)=O)C(=O)N1CCC[C@H]1C(=O)N[C@@H](Cc1ccccc1)C(=O)N[C@H](C(=O)N[C@@H](C)C(=O)NCC(=O)N[C@H](C(=O)N[C@@H](C)C(=O)N[C@@H](C)C(=O)N[C@@H](CCC(=O)O)C(=O)N[C@@H](CCSC)C(=O)N[C@@H](CCSC)C(=O)N[C@@H](CCC(N)=O)C(=O)N[C@@H](Cc1cnc[nH]1)C(=O)N[C@H](C(=O)N[C@@H](Cc1ccc(O)cc1)C(=O)N[C@H]1CSSC[C@@H](C(=O)O)NC(=O)[C@H](CCCCN)NC(=O)[C@H](CCCCN)NC(=O)[C@H](CO)NC(=O)[C@H](C)NC(=O)[C@H](C)NC1=O)C(C)C)C(C)C)C(C)C [INPFVAGVAAEMMQHVYCAASKKC]	MIC [5]: 3.35 µM (≈ 8.59 µg/mL); MIC [6]: 3.35 µM (≈ 8.59 µg/mL)
		2 (≈ 4.6 µg/mL)	1 (≈ 2.3 µg/mL)	2 (≈ 4.6 µg/mL)	1 (≈ 2.3 µg/mL)	1 (≈ 2.3 µg/mL)	2 (≈ 4.6 µg/mL)	CC[C@H](C)[C@H](NC(=O)[C@H](CCCCN)NC(=O)[C@H](CCCCN)NC(=O)[C@H](Cc1ccccc1)NC(=O)[C@H](CC(C)C)NC(=O)[C@H](CCCCN)NC(=O)[C@H](C)NC(=O)[C@@H](N)CCCCN)C(=O)N1CCC[C@H]1C(=O)N[C@@H](CCCCN)C(=O)N[C@@H](Cc1ccccc1)C(=O)N[C@@H](CC(C)C)C(=O)N[C@@H](Cc1cnc[nH]1)C(=O)N[C@@H](CC(C)C)C(=O)N[C@@H](Cc1c[nH]c2ccccc12)C(=O)N[C@@H](CCCCN)C(=O)N[C@@H](CCCCN)C(=O)N[C@@H](Cc1ccccc1)C(N)=O [KAKLFKKIPKFLHLWKKF]	
16 (≈ 28.7 µg/mL)	> 32							C[C@H](NC(=O)[C@H](C)NC(=O)[C@H](Cc1ccccc1)NC(=O)[C@H](C)NC(=O)[C@H](C)NC(=O)[C@H](Cc1ccccc1)NC(=O)[C@H](C)NC(=O)[C@H](C)NC(=O)[C@H](Cc1ccccc1)NC(=O)[C@H](C)NC(=O)[C@H](C)NC(=O)[C@H](CCCCN)NC(=O)[C@H](CCCCN)NC(=O)[C@H](CCCCN)NC(=O)[C@H](CCCCN)NC(=O)[C@H](CCCCN)NC(=O)[C@@H](N)CCCCN)C(N)=O [KKKKKKAAFAAFAAFAA]	MIC [13]: 16 µM (≈ 28.7 µg/mL); MIC [14]: > 32 µM; MIC [15]: 8 µM (≈ 14.4 µg/mL); MIC [16]: 16 µM (≈ 28.7 µg/mL); MIC (Escherichia coli UB1005): 2 µM (≈ 3.59 µg/mL)
47 (≈ 42.4 µg/mL)	47 (≈ 42.4 µg/mL)							NCCCC[C@H](NC(=O)[C@H](Cc1c[nH]c2ccccc12)NC(=O)[C@H](CCC(N)=O)NC(=O)[C@H](Cc1c[nH]c2ccccc12)NC(=O)[C@H](CCCCN)NC(=O)[C@@H](N)CCCCN)C(=O)O [KKWQWK]	MIC [17]: 23 µM (≈ 20.8 µg/mL); MIC [16]: 47 µM (≈ 42.4 µg/mL)
		4 (≈ 6.2 µg/mL)	2 (≈ 3.1 µg/mL)	8 (≈ 12.4 µg/mL)	4 (≈ 6.2 µg/mL)	16 (≈ 24.8 µg/mL)	16 (≈ 24.8 µg/mL)	CC[C@H](C)[C@H](NC(=O)[C@H](CC(C)C)NC(=O)[C@H](CCCCN)NC(=O)[C@@H](NC(=O)[C@@H](NC(=O)[C@H](CCCN=C(N)N)NC(=O)[C@@H](N)CC(C)C)[C@@H](C)CC)C(C)C)C(=O)N[C@@H](CC(C)C)C(=O)N[C@@H](CCCCN)C(=O)N[C@@H](Cc1c[nH]c2ccccc12)C(=O)N[C@@H](CC(C)C)C(=O)N[C@@H](CCCN=C(N)N)C(N)=O [LRIVKLILKWLR]	
		7.44 (≈ 12.5 µg/mL)	3.72 (≈ 6.25 µg/mL)	7.44 (≈ 12.5 µg/mL)	1.86 (≈ 3.13 µg/mL)	3.72 (≈ 6.25 µg/mL)	14.9 (≈ 25 µg/mL)	CC[C@H](C)[C@H](NC(=O)[C@H](CCCN=C(N)N)NC(=O)[C@H](CC(C)C)NC(=O)[C@H](CC(C)C)NC(=O)[C@@H](N)CCCN=C(N)N)C(=O)N[C@@H](Cc1c[nH]c2ccccc12)C(=O)N[C@@H](Cc1c[nH]c2ccccc12)C(=O)N[C@H](C(=O)N[C@@H](CCCN=C(N)N)C(=O)N[C@H](C(=O)N[C@@H](CC(C)C)C(=O)N[C@@H](CCCN=C(N)N)C(N)=O)C(C)C)[C@@H](C)CC [RLLRIWWIRVLR]	
> 126	> 126							CC(C)[C@H](N)C(=O)N[C@H](C(=O)N[C@@H](CCCCN)C(=O)N[C@@H](CS)C(=O)N[C@@H](CO)C(=O)N[C@@H](Cc1ccc(O)cc1)C(=O)N[C@@H](CCCN=C(N)N)C(=O)N[C@@H](CCC(N)=O)C(=O)NCC(=O)N[C@@H](CO)C(=O)N1CCC[C@H]1C(=O)N[C@@H](CC(=O)O)C(=O)N[C@@H](CO)C(=O)N[C@@H](CCCN=C(N)N)C(=O)O)C(C)C [VVKCSYRQGSPDSR]	MIC [5]: ≥ 126 µM; MIC [6]: ≥ 126 µM
